In brackets after ≈: the same amount, converted by molar mass.
System: not listed separately
Test: Permeability of compound
Type: ADME
Conditions: not told; read-out: permeability

SMILES	Papp [×10⁻⁶ cm/s]
C[C@H](Oc1ccc(C(=O)NCC[C@H]2CNCCO2)cc1-c1cn(C)nn1)c1ccccn1	< 0.3
CCNC(=O)c1cc(Cc2ccccc2F)nc(-c2cn(C)nn2)c1	30
CCNC(=O)c1ccc(OCc2ccccn2)c(-c2cn(C)nn2)c1	14
CCNC(=O)c1cc(Cc2ccccc2OC)nc(-c2cn(C)nn2)c1	37
CC(=O)Nc1c(F)cc(C(=O)N[C@H]2CC[C@H](O)CC2)cc1O[C@@H](C)c1ccccc1 [GSK046]	1.7
CCNC(=O)c1cc(Cc2ccc(F)cc2)nc(-c2cn(C)nn2)c1	33
CCNC(=O)c1ccc(OCc2ccccc2OC)c(-c2cn(C)nn2)c1	48
CCNC(=O)c1ccc(OCc2ccncc2)c(-c2cn(C)nn2)c1	30
C[C@H](Oc1ccc(C(=O)NCC[C@@H]2CNCCO2)cc1-c1cn(C)nn1)c1ccccn1	< 0.3
Cn1cc(-c2cc(C(=O)NC3CCOCC3)cc(Cc3ccccc3)n2)nn1	27
Cn1cc(-c2cc(C(=O)NCC[C@H]3CNCCO3)cc(Cc3ccccc3)n2)nn1	4.8
C[C@H](Oc1ccc(C(N)=O)cc1-c1cn(C)nn1)c1ccccn1	4.7
Cn1cc(-c2cc(C(N)=O)cc(Cc3ccccc3)n2)nn1	14
Cn1cc(-c2cc(C(=O)NCCCC3CCNCC3)cc(Cc3ccccc3)n2)nn1	< 0.3
C[C@H](Oc1ccc(C(=O)NCCC[C@@]2(F)CCCNC2)cc1-c1cn(C)nn1)c1ccccn1	0.53
Cn1cc(-c2cc(C(=O)NC3CC3)cc(Cc3ccccc3)n2)nn1	36
Cn1cc(-c2cc(C(=O)NCC[C@@H]3CNCCO3)cc(Cc3ccccc3)n2)nn1	1.8
CCNC(=O)c1ccc(O[C@H](C)c2ccccc2)c(-c2cn(C)nn2)c1	42
C[C@H](Oc1ccc(C(=O)NC2CCOCC2)cc1-c1cn(C)nn1)c1ccccn1	5.9
CCNC(=O)c1cc(Cc2ccccc2)nc(C(=O)NC)c1	39
CNC(=O)c1ccc(O[C@@H](C)c2ccccn2)c(-c2cn(C)nn2)c1	7
CCNC(=O)c1ccc(O[C@@H](C)c2ccccc2)c(-c2cn(C)nn2)c1	42
Cn1cc(-c2cc(C(=O)N[C@H]3[C@@H]4COC[C@@H]43)cc(Cc3ccccc3)n2)nn1	24
CCNC(=O)c1ccc(O[C@@H](C)c2ccccn2)c(-c2cn(C)nn2)c1	15

Species: Homo sapiens
Test: Selectivity index, ratio of pIC50 of BRD4 BD1 (unknown origin) to pIC50 of BRD4 BD2 (unknown origin)
Conditions: not given

SMILES	Ratio pIC50
C[C@H](Oc1ccc(C(=O)NCC[C@H]2CNCCO2)cc1-c1cn(C)nn1)c1ccccn1	125
CCNC(=O)c1cc(Cc2ccccc2F)nc(-c2cn(C)nn2)c1	100
CCNC(=O)c1ccc(OCc2ccccn2)c(-c2cn(C)nn2)c1	125
CCNC(=O)c1cc(Cc2ccccc2OC)nc(-c2cn(C)nn2)c1	200
CCNC(=O)c1cc(Cc2ccc(F)cc2)nc(-c2cn(C)nn2)c1	80
CCNC(=O)c1ccc(OCc2ccccc2OC)c(-c2cn(C)nn2)c1	160
CCNC(=O)c1ccc(OCc2ccncc2)c(-c2cn(C)nn2)c1	15
C[C@H](Oc1ccc(C(=O)NCC[C@@H]2CNCCO2)cc1-c1cn(C)nn1)c1ccccn1	250
Cn1cc(-c2cc(C(=O)NC3CCOCC3)cc(Cc3ccccc3)n2)nn1	160
Cn1cc(-c2cc(C(=O)NCC[C@H]3CNCCO3)cc(Cc3ccccc3)n2)nn1	250
C[C@H](Oc1ccc(C(N)=O)cc1-c1cn(C)nn1)c1ccccn1	25
Cn1cc(-c2cc(C(N)=O)cc(Cc3ccccc3)n2)nn1	50
Cn1cc(-c2cc(C(=O)NCCCC3CCNCC3)cc(Cc3ccccc3)n2)nn1	400
C[C@H](Oc1ccc(C(=O)NCCC[C@@]2(F)CCCNC2)cc1-c1cn(C)nn1)c1ccccn1	400
Cn1cc(-c2cc(C(=O)NC3CC3)cc(Cc3ccccc3)n2)nn1	125
Cn1cc(-c2cc(C(=O)NCC[C@@H]3CNCCO3)cc(Cc3ccccc3)n2)nn1	400
CCNC(=O)c1ccc(O[C@H](C)c2ccccc2)c(-c2cn(C)nn2)c1	25
C[C@H](Oc1ccc(C(=O)NC2CCOCC2)cc1-c1cn(C)nn1)c1ccccn1	100
CNC(=O)c1ccc(O[C@@H](C)c2ccccn2)c(-c2cn(C)nn2)c1	80
CCNC(=O)c1ccc(O[C@@H](C)c2ccccc2)c(-c2cn(C)nn2)c1	100
Cn1cc(-c2cc(C(=O)N[C@H]3[C@@H]4COC[C@@H]43)cc(Cc3ccccc3)n2)nn1	100
CCNC(=O)c1ccc(O[C@@H](C)c2ccccn2)c(-c2cn(C)nn2)c1	100

Molecular target: Bromodomain-containing protein 4 (Homo sapiens, UniProt O60885, Y97A)
Test: Inhibition of 6His-Thr-BRD4 (1 to 477 residues) BD1 Y97A mutant (unknown origin) incubated for 30 mins by TR-FRET assay
Conditions: not given

SMILES	IC50 [nM]
C[C@H](Oc1ccc(C(=O)NCC[C@H]2CNCCO2)cc1-c1cn(C)nn1)c1ccccn1	7940
CCNC(=O)c1cc(Cc2ccccc2F)nc(-c2cn(C)nn2)c1	20000
CCNC(=O)c1ccc(OCc2ccccn2)c(-c2cn(C)nn2)c1	39800
CCNC(=O)c1cc(Cc2ccccc2OC)nc(-c2cn(C)nn2)c1	39800
CCNC(=O)c1cc(Cc2ccc(F)cc2)nc(-c2cn(C)nn2)c1	20000
CCNC(=O)c1ccc(OCc2ccccc2OC)c(-c2cn(C)nn2)c1	20000
CCNC(=O)c1ccc(OCc2ccncc2)c(-c2cn(C)nn2)c1	12600
C[C@H](Oc1ccc(C(=O)NCC[C@@H]2CNCCO2)cc1-c1cn(C)nn1)c1ccccn1	6310
Cn1cc(-c2cc(C(=O)NC3CCOCC3)cc(Cc3ccccc3)n2)nn1	20000
Cn1cc(-c2cc(C(=O)NCC[C@H]3CNCCO3)cc(Cc3ccccc3)n2)nn1	15800
C[C@H](Oc1ccc(C(N)=O)cc1-c1cn(C)nn1)c1ccccn1	6310
Cn1cc(-c2cc(C(N)=O)cc(Cc3ccccc3)n2)nn1	12600
Cn1cc(-c2cc(C(=O)NCCCC3CCNCC3)cc(Cc3ccccc3)n2)nn1	10000
C[C@H](Oc1ccc(C(=O)NCCC[C@@]2(F)CCCNC2)cc1-c1cn(C)nn1)c1ccccn1	3980
Cn1cc(-c2cc(C(=O)NCC[C@@H]3CNCCO3)cc(Cc3ccccc3)n2)nn1	12600
CCNC(=O)c1ccc(O[C@H](C)c2ccccc2)c(-c2cn(C)nn2)c1	39800
C[C@H](Oc1ccc(C(=O)NC2CCOCC2)cc1-c1cn(C)nn1)c1ccccn1	15800
CNC(=O)c1ccc(O[C@@H](C)c2ccccn2)c(-c2cn(C)nn2)c1	10000
CCNC(=O)c1ccc(O[C@@H](C)c2ccccc2)c(-c2cn(C)nn2)c1	3980
Cn1cc(-c2cc(C(=O)N[C@H]3[C@@H]4COC[C@@H]43)cc(Cc3ccccc3)n2)nn1	5010
CCNC(=O)c1ccc(O[C@@H](C)c2ccccn2)c(-c2cn(C)nn2)c1	7940

System: not listed separately
Test: Solubility of compound by CLND assay
Type: physicochemical
Conditions: not given

SMILES	solubility kinetic [µg/mL]
C[C@H](Oc1ccc(C(=O)NCC[C@H]2CNCCO2)cc1-c1cn(C)nn1)c1ccccn1	≥ 182
CCNC(=O)c1cc(Cc2ccccc2F)nc(-c2cn(C)nn2)c1	66 (≈ 194 µM)
CCNC(=O)c1ccc(OCc2ccccn2)c(-c2cn(C)nn2)c1	114 (≈ 338 µM)
CCNC(=O)c1cc(Cc2ccccc2OC)nc(-c2cn(C)nn2)c1	62 (≈ 176 µM)
CCNC(=O)c1cc(Cc2ccc(F)cc2)nc(-c2cn(C)nn2)c1	75 (≈ 221 µM)
CCNC(=O)c1ccc(OCc2ccccc2OC)c(-c2cn(C)nn2)c1	≥ 162
CCNC(=O)c1ccc(OCc2ccncc2)c(-c2cn(C)nn2)c1	≥ 115
C[C@H](Oc1ccc(C(=O)NCC[C@@H]2CNCCO2)cc1-c1cn(C)nn1)c1ccccn1	≥ 177
Cn1cc(-c2cc(C(=O)NC3CCOCC3)cc(Cc3ccccc3)n2)nn1	≥ 141
Cn1cc(-c2cc(C(=O)NCC[C@H]3CNCCO3)cc(Cc3ccccc3)n2)nn1	≥ 189
C[C@H](Oc1ccc(C(N)=O)cc1-c1cn(C)nn1)c1ccccn1	131 (≈ 405 µM)
Cn1cc(-c2cc(C(N)=O)cc(Cc3ccccc3)n2)nn1	40 (≈ 136 µM)
Cn1cc(-c2cc(C(=O)NCCCC3CCNCC3)cc(Cc3ccccc3)n2)nn1	≥ 134
C[C@H](Oc1ccc(C(=O)NCCC[C@@]2(F)CCCNC2)cc1-c1cn(C)nn1)c1ccccn1	≥ 193
Cn1cc(-c2cc(C(=O)NC3CC3)cc(Cc3ccccc3)n2)nn1	≥ 76
Cn1cc(-c2cc(C(=O)NCC[C@@H]3CNCCO3)cc(Cc3ccccc3)n2)nn1	≥ 138
CCNC(=O)c1ccc(O[C@H](C)c2ccccc2)c(-c2cn(C)nn2)c1	119 (≈ 340 µM)
C[C@H](Oc1ccc(C(=O)NC2CCOCC2)cc1-c1cn(C)nn1)c1ccccn1	≥ 194
CCNC(=O)c1cc(Cc2ccccc2)nc(C(=O)NC)c1	≥ 102
CNC(=O)c1ccc(O[C@@H](C)c2ccccn2)c(-c2cn(C)nn2)c1	≥ 138
CCNC(=O)c1ccc(O[C@@H](C)c2ccccc2)c(-c2cn(C)nn2)c1	105 (≈ 300 µM)
Cn1cc(-c2cc(C(=O)N[C@H]3[C@@H]4COC[C@@H]43)cc(Cc3ccccc3)n2)nn1	≥ 145
CCNC(=O)c1ccc(O[C@@H](C)c2ccccn2)c(-c2cn(C)nn2)c1	≥ 127

System: not listed separately
Test: Solubility of the compound in pH 6.5 FaSSIF at 1 mg measured after 4 hrs by HPLC analysis
Type: physicochemical
Conditions: not given

SMILES	solubility at 4 h [µg/mL]
CC(=O)Nc1c(F)cc(C(=O)N[C@H]2CC[C@H](O)CC2)cc1O[C@@H](C)c1ccccc1 [GSK046]	996 (≈ 2400 µM)
CCNC(=O)c1cc(Cc2ccccc2)nc(C(=O)NC)c1	310 (≈ 1040 µM)

Molecular target: Bromodomain-containing protein 4 (Homo sapiens, UniProt O60885, Y390A)
Test: Inhibition of 6His-Thr-BRD4 (1 to 477 residues) BD2 domain Y390A mutant (unknown origin) incubated for 30 mins by TR-FRET assay
Conditions: not given

SMILES	IC50 [nM]
C[C@H](Oc1ccc(C(=O)NCC[C@H]2CNCCO2)cc1-c1cn(C)nn1)c1ccccn1	63.1
CCNC(=O)c1cc(Cc2ccccc2F)nc(-c2cn(C)nn2)c1	200
CCNC(=O)c1ccc(OCc2ccccn2)c(-c2cn(C)nn2)c1	316
CCNC(=O)c1cc(Cc2ccccc2OC)nc(-c2cn(C)nn2)c1	200
CCNC(=O)c1cc(Cc2ccc(F)cc2)nc(-c2cn(C)nn2)c1	251
CCNC(=O)c1ccc(OCc2ccccc2OC)c(-c2cn(C)nn2)c1	126
CCNC(=O)c1ccc(OCc2ccncc2)c(-c2cn(C)nn2)c1	1000
C[C@H](Oc1ccc(C(=O)NCC[C@@H]2CNCCO2)cc1-c1cn(C)nn1)c1ccccn1	25.1
Cn1cc(-c2cc(C(=O)NC3CCOCC3)cc(Cc3ccccc3)n2)nn1	126
Cn1cc(-c2cc(C(=O)NCC[C@H]3CNCCO3)cc(Cc3ccccc3)n2)nn1	63.1
C[C@H](Oc1ccc(C(N)=O)cc1-c1cn(C)nn1)c1ccccn1	251
Cn1cc(-c2cc(C(N)=O)cc(Cc3ccccc3)n2)nn1	251
Cn1cc(-c2cc(C(=O)NCCCC3CCNCC3)cc(Cc3ccccc3)n2)nn1	25.1
C[C@H](Oc1ccc(C(=O)NCCC[C@@]2(F)CCCNC2)cc1-c1cn(C)nn1)c1ccccn1	10
Cn1cc(-c2cc(C(=O)NC3CC3)cc(Cc3ccccc3)n2)nn1	126
Cn1cc(-c2cc(C(=O)NCC[C@@H]3CNCCO3)cc(Cc3ccccc3)n2)nn1	31.6
CCNC(=O)c1ccc(O[C@H](C)c2ccccc2)c(-c2cn(C)nn2)c1	1580
C[C@H](Oc1ccc(C(=O)NC2CCOCC2)cc1-c1cn(C)nn1)c1ccccn1	126
CNC(=O)c1ccc(O[C@@H](C)c2ccccn2)c(-c2cn(C)nn2)c1	126
CCNC(=O)c1ccc(O[C@@H](C)c2ccccc2)c(-c2cn(C)nn2)c1	39.8
Cn1cc(-c2cc(C(=O)N[C@H]3[C@@H]4COC[C@@H]43)cc(Cc3ccccc3)n2)nn1	50.1
CCNC(=O)c1ccc(O[C@@H](C)c2ccccn2)c(-c2cn(C)nn2)c1	79.4
